Where a SMILES comes first, the peptide text is derived from it. Bridges are numbered along the chain shown (N, C = ends). [ ]: non-standard residue; d: D form. The star is where a group is joined. Bip = N[C@@H](Cc1ccc(-c2ccccc2)cc1)C(=O)O; Cha = N[C@@H](CC1CCCCC1)C(=O)O; Cit = NC(=O)NCCC[C@H](N)C(=O)O; Carboxymethyl = O=C(O)C*; Nle = CCCC[C@H](N)C(=O)O; Orn = NCCC[C@H](N)C(=O)O; Dab = NCC[C@H](N)C(=O)O; Dap = NC[C@H](N)C(=O)O
Biological target: T1, human PD-1 / PD-L1-Ig binding on Jurkat cell line over-expressing human PD-1 (Jurkat-PD-1) (Homo sapiens, UniProt Q15116)
T1 construct: expressed in transfected cells; host or cells: Jurkat
Assay: Jurkat-PD-1 Cell Binding High-Content Screening Assay (CBA)
Assay type: cell-based
Settings: Jurkat-PD-1 cells, PE-labeled PD-L1-Ig 20 nM final; read-out: Jurkat HPD1_PDL1 IC50
Summary of the method: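 Read-out: high-content imaging of PE-tagged PD-L1-Ig bound to Jurkat cells overexpressing human PD-1, after fixation with 4% paraformaldehyde and Hoechst 33342 nuclear staining. Ligand was used at 20 nM final for 1 hour, after a 2 h compound exposure at 37° C in serum-containing DMEM.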

T1 sequence (Q15116 25-288): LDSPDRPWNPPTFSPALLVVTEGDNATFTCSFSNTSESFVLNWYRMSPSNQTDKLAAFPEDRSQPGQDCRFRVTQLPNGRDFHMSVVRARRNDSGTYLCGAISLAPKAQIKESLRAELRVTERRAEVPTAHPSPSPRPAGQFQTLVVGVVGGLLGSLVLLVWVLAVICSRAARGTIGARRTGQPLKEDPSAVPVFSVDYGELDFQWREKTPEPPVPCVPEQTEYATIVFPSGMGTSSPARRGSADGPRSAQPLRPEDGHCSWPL

Row | Structure (SMILES) | IC50 [nM]
1 | CC(C)C[C@H]1NC(=O)[C@H](CCCN)NC(=O)[C@H](CCCNC(N)=O)NC(=O)[C@H](Cc2ccc(-c3ccccc3)cc2)NC(=O)[C@H](C(C)C)NC(=O)[C@H](Cc2c[nH]c3ccccc23)NC(=O)[C@H](CC(=O)O)NC(=O)[C@H](Cc2ccc(O)cc2)NC(=O)[C@H](CN)NC(=O)CSC[C@@H](C(=O)N[C@@H](C)C(N)=O)NC(=O)[C@H]([C@@H](C)O)NC(=O)[C@H](C(C)C)NC(=O)[C@H](CC2CCCCC2)NC(=O)[C@H](CCCNC(=N)N)NC1=O [Compound 1153] ({CH2CO}-[Dap]YDWV[Bip][Cit][Orn][dL]R[Cha]VTCA-NH2; thioether N-14) | 8.9
2 | CC(C)C[C@H]1NC(=O)[C@H](CCCN)NC(=O)[C@H](CCCNC(N)=O)NC(=O)[C@H](Cc2ccc(-c3ccccc3)cc2)NC(=O)[C@H](C(C)C)NC(=O)[C@H](Cc2c[nH]c3ccccc23)NC(=O)[C@H](CC(=O)O)NC(=O)[C@H](Cc2ccc(O)cc2)NC(=O)[C@H](Cc2ccc(OCC(=O)O)cc2)NC(=O)CSC[C@@H](C(=O)N[C@@H](C)C(N)=O)NC(=O)[C@H]([C@@H](C)O)NC(=O)[C@H](C(C)C)NC(=O)[C@H](CC2CCCCC2)NC(=O)[C@H](CCCNC(=N)N)NC1=O [Compound 1154] ({CH2CO}-Y(Carboxymethyl)YDWV[Bip][Cit][Orn][dL]R[Cha]VTCA-NH2; thioether N-14) | 9.2
3 | CC(C)C[C@H]1NC(=O)[C@H](CCCN)NC(=O)[C@H](CCCNC(N)=O)NC(=O)[C@H](Cc2ccc(-c3ccccc3)cc2)NC(=O)[C@H](C(C)C)NC(=O)[C@H](Cc2c[nH]c3ccccc23)NC(=O)[C@H](CC(=O)O)NC(=O)[C@H](Cc2ccc(O)cc2)NC(=O)[C@H](CC(N)=O)NC(=O)CSC[C@@H](C(=O)N[C@@H](C)C(N)=O)NC(=O)[C@H]([C@@H](C)O)NC(=O)[C@H](C(C)C)NC(=O)[C@H](CC2CCCCC2)NC(=O)[C@H](CCCNC(=N)N)NC1=O [Compound 1155] ({CH2CO}-NYDWV[Bip][Cit][Orn][dL]R[Cha]VTCA-NH2; thioether N-14) | 7.7
4 | CC(C)C[C@H]1NC(=O)[C@H](CCCN)NC(=O)[C@H](CCCNC(N)=O)NC(=O)[C@H](Cc2ccc(-c3ccccc3)cc2)NC(=O)[C@H](C(C)C)NC(=O)[C@H](Cc2c[nH]c3ccccc23)NC(=O)[C@H](CC(=O)O)NC(=O)[C@H](Cc2ccc(O)cc2)NC(=O)[C@H](Cc2ccccc2)NC(=O)CSC[C@@H](C(=O)N[C@@H](C)C(N)=O)NC(=O)[C@H]([C@@H](C)O)NC(=O)[C@H](C(C)C)NC(=O)[C@H](CC2CCCCC2)NC(=O)[C@H](CCCNC(=N)N)NC1=O [Compound 1156] ({CH2CO}-FYDWV[Bip][Cit][Orn][dL]R[Cha]VTCA-NH2; thioether N-14) | 20.7
5 | CC(C)C[C@H]1NC(=O)[C@H](CCCN)NC(=O)[C@H](CCCNC(N)=O)NC(=O)[C@H](Cc2ccc(-c3ccccc3)cc2)NC(=O)[C@H](C(C)C)NC(=O)[C@H](Cc2c[nH]c3ccccc23)NC(=O)[C@H](CC(=O)O)NC(=O)[C@H](Cc2ccc(O)cc2)NC(=O)[C@H](CN)NC(=O)CSC[C@@H](C(=O)N[C@@H](C)C(N)=O)NC(=O)[C@H]([C@@H](C)O)NC(=O)[C@H](C(C)C)NC(=O)[C@H](CC2CCCCC2)NC(=O)[C@H](CCN)NC1=O [Compound 1157] | 10.6
6 | CCCC[C@@H]1NC(=O)[C@H](CCN)NC(=O)[C@@H](CC(C)C)NC(=O)[C@H](CCCN)NC(=O)[C@H](CCCNC(N)=O)NC(=O)[C@H](Cc2ccc(-c3ccccc3)cc2)NC(=O)[C@H](C(C)C)NC(=O)[C@H](Cc2c[nH]c3ccccc23)NC(=O)[C@H](CC(=O)O)NC(=O)[C@H](Cc2ccc(O)cc2)NC(=O)[C@H](CN)NC(=O)CSC[C@@H](C(=O)N[C@@H](C)C(N)=O)NC(=O)[C@H]([C@@H](C)O)NC(=O)[C@H](C(C)C)NC1=O [Compound 1158] ({CH2CO}-[Dap]YDWV[Bip][Cit][Orn][dL][Dab][Nle]VTCA-NH2; thioether N-14) | 73.1
7 | CC[C@H](C)[C@@H]1NC(=O)[C@H](Cc2ccc(-c3ccccc3)cc2)NC(=O)[C@H](C(C)C)NC(=O)[C@H](Cc2c[nH]c3ccccc23)NC(=O)[C@H](CC(=O)O)NC(=O)[C@H](Cc2ccc(O)cc2)NC(=O)[C@H](CN)NC(=O)CSC[C@@H](C(=O)N[C@@H](C)C(N)=O)NC(=O)[C@H]([C@@H](C)O)NC(=O)[C@H](C(C)C)NC(=O)[C@H](CC2CCCCC2)NC(=O)[C@H](CCN)NC(=O)[C@@H](CC(C)C)NC(=O)[C@H](CCCN)NC1=O [Compound 1159] | 8.1
8 | CCCC[C@@H]1NC(=O)[C@H](CCN)NC(=O)[C@@H](CC(C)C)NC(=O)[C@H](CCCN)NC(=O)[C@H]([C@@H](C)CC)NC(=O)[C@H](Cc2ccc(-c3ccccc3)cc2)NC(=O)[C@H](C(C)C)NC(=O)[C@H](Cc2c[nH]c3ccccc23)NC(=O)[C@H](CC(=O)O)NC(=O)[C@H](Cc2ccc(O)cc2)NC(=O)[C@H](CN)NC(=O)CSC[C@@H](C(=O)N[C@@H](C)C(N)=O)NC(=O)[C@H]([C@@H](C)O)NC(=O)[C@H](C(C)C)NC1=O [Compound 1160] ({CH2CO}-[Dap]YDWV[Bip]I[Orn][dL][Dab][Nle]VTCA-NH2; thioether N-14) | 31.3

Second part, the compound after the results:

Row | IC50 [nM] | Structure (SMILES)
9 | 16.1 | CC(C)C[C@H]1NC(=O)[C@H](CCCN)NC(=O)[C@H](CCCNC(N)=O)NC(=O)[C@H](Cc2ccc(-c3ccccc3)cc2)NC(=O)[C@H](C(C)C)NC(=O)[C@H](Cc2c[nH]c3ccccc23)NC(=O)[C@H](CC(=O)O)NC(=O)[C@H](Cc2ccc(O)cc2)NC(=O)[C@H](CC(N)=O)NC(=O)CSC[C@@H](C(=O)N[C@@H](C)C(N)=O)NC(=O)[C@H]([C@@H](C)O)NC(=O)[C@H](C(C)C)NC(=O)[C@H](CC2CCCCC2)NC(=O)[C@H](CCN)NC1=O [Compound 1161] ({CH2CO}-NYDWV[Bip][Cit][Orn][dL][Dab][Cha]VTCA-NH2; thioether N-14)
10 | 327 | CCCC[C@@H]1NC(=O)[C@H](CCN)NC(=O)[C@@H](CC(C)C)NC(=O)[C@H](CCCN)NC(=O)[C@H](CCCNC(N)=O)NC(=O)[C@H](Cc2ccc(-c3ccccc3)cc2)NC(=O)[C@H](C(C)C)NC(=O)[C@H](Cc2c[nH]c3ccccc23)NC(=O)[C@H](CC(=O)O)NC(=O)[C@H](Cc2ccc(O)cc2)NC(=O)[C@H](CC(N)=O)NC(=O)CSC[C@@H](C(=O)N[C@@H](C)C(N)=O)NC(=O)[C@H]([C@@H](C)O)NC(=O)[C@H](C(C)C)NC1=O [Compound 1162] ({CH2CO}-NYDWV[Bip][Cit][Orn][dL][Dab][Nle]VTCA-NH2; thioether N-14)
11 | 26.1 | CC[C@H](C)[C@@H]1NC(=O)[C@H](Cc2ccc(-c3ccccc3)cc2)NC(=O)[C@H](C(C)C)NC(=O)[C@H](Cc2c[nH]c3ccccc23)NC(=O)[C@H](CC(=O)O)NC(=O)[C@H](Cc2ccc(O)cc2)NC(=O)[C@H](CC(N)=O)NC(=O)CSC[C@@H](C(=O)N[C@@H](C)C(N)=O)NC(=O)[C@H]([C@@H](C)O)NC(=O)[C@H](C(C)C)NC(=O)[C@H](CC2CCCCC2)NC(=O)[C@H](CCN)NC(=O)[C@@H](CC(C)C)NC(=O)[C@H](CCCN)NC1=O [Compound 1163] ({CH2CO}-NYDWV[Bip]I[Orn][dL][Dab][Cha]VTCA-NH2; thioether N-14)
12 | 14.6 | CC(C)C[C@H]1NC(=O)[C@H](CCCN)NC(=O)[C@H](CCCNC(N)=O)NC(=O)[C@H](Cc2ccc(-c3ccccc3)cc2)NC(=O)[C@H](C(C)C)NC(=O)[C@H](Cc2c[nH]c3ccccc23)NC(=O)[C@H](CC(=O)O)NC(=O)[C@H](Cc2ccc(O)cc2)NC(=O)[C@H](Cc2ccc(OCC(=O)O)cc2)NC(=O)CSC[C@@H](C(=O)N[C@@H](C)C(N)=O)NC(=O)[C@H]([C@@H](C)O)NC(=O)[C@H](C(C)C)NC(=O)[C@H](CC2CCCCC2)NC(=O)[C@H](CCN)NC1=O [Compound 1165]
13 | 58.3 | CCCC[C@@H]1NC(=O)[C@H](CCN)NC(=O)[C@@H](CC(C)C)NC(=O)[C@H](CCCN)NC(=O)[C@H](CCCNC(N)=O)NC(=O)[C@H](Cc2ccc(-c3ccccc3)cc2)NC(=O)[C@H](C(C)C)NC(=O)[C@H](Cc2c[nH]c3ccccc23)NC(=O)[C@H](CC(=O)O)NC(=O)[C@H](Cc2ccc(O)cc2)NC(=O)[C@H](Cc2ccc(OCC(=O)O)cc2)NC(=O)CSC[C@@H](C(=O)N[C@@H](C)C(N)=O)NC(=O)[C@H]([C@@H](C)O)NC(=O)[C@H](C(C)C)NC1=O [Compound 1166] ({CH2CO}-Y(Carboxymethyl)YDWV[Bip][Cit][Orn][dL][Dab][Nle]VTCA-NH2; thioether N-14)
14 | 17 | CC[C@H](C)[C@@H]1NC(=O)[C@H](Cc2ccc(-c3ccccc3)cc2)NC(=O)[C@H](C(C)C)NC(=O)[C@H](Cc2c[nH]c3ccccc23)NC(=O)[C@H](CC(=O)O)NC(=O)[C@H](Cc2ccc(O)cc2)NC(=O)[C@H](Cc2ccc(OCC(=O)O)cc2)NC(=O)CSC[C@@H](C(=O)N[C@@H](C)C(N)=O)NC(=O)[C@H]([C@@H](C)O)NC(=O)[C@H](C(C)C)NC(=O)[C@H](CC2CCCCC2)NC(=O)[C@H](CCN)NC(=O)[C@@H](CC(C)C)NC(=O)[C@H](CCCN)NC1=O [Compound 1167]
15 | 26.3 | CCCC[C@@H]1NC(=O)[C@H](CCN)NC(=O)[C@@H](CC(C)C)NC(=O)[C@H](CCCN)NC(=O)[C@H]([C@@H](C)CC)NC(=O)[C@H](Cc2ccc(-c3ccccc3)cc2)NC(=O)[C@H](C(C)C)NC(=O)[C@H](Cc2c[nH]c3ccccc23)NC(=O)[C@H](CC(=O)O)NC(=O)[C@H](Cc2ccc(O)cc2)NC(=O)[C@H](Cc2ccc(OCC(=O)O)cc2)NC(=O)CSC[C@@H](C(=O)N[C@@H](C)C(N)=O)NC(=O)[C@H]([C@@H](C)O)NC(=O)[C@H](C(C)C)NC1=O [Compound 1168] ({CH2CO}-Y(Carboxymethyl)YDWV[Bip]I[Orn][dL][Dab][Nle]VTCA-NH2; thioether N-14)
16 | 20.7 | CCCC[C@@H]1NC(=O)[C@H](CCN)NC(=O)[C@@H](CC(C)C)NC(=O)[C@H](CCCN)NC(=O)[C@H](C(C)C)NC(=O)[C@H](Cc2ccc(-c3ccccc3)cc2)NC(=O)[C@H](C(C)C)NC(=O)[C@H](Cc2c[nH]c3ccccc23)NC(=O)[C@H](CC(=O)O)NC(=O)[C@H](Cc2ccc(O)cc2)NC(=O)[C@H](CN)NC(=O)CSC[C@@H](C(=O)N[C@@H](C)C(N)=O)NC(=O)[C@H]([C@@H](C)O)NC(=O)[C@H](C(C)C)NC1=O [Compound 1169] ({CH2CO}-[Dap]YDWV[Bip]V[Orn][dL][Dab][Nle]VTCA-NH2; thioether N-14)

From patent publication US20250163104A1, “MACROCYCLIC IMMUNOMODULATORS” (priority 2021, published 2025)
